The values that follow come from US9290503B2, “Tricyclic compound derivatives useful in the treatment of neoplastic diseases, inflammatory disorders and immunomodulatory disorders” (CHEMBRIDGE CORPORATION, priority 2006, dated 2016).

What all share (format): cell-based
The target of one test is T1, IGF1 receptor (Homo sapiens, UniProt P08069).
T1 construct: MCF7 human breast cancer cells expressing IGF1 receptor; endogenous in cells; host or cells: MCF7 human breast cancer cells
Description: ELISA-based assay of IGF1 receptor autophosphorylation inhibition in cells. As to conditions: MCF7 cells, read-out: MCF7 IGF1R Phosphorylation IC50. As to the method: In another embodiment, compounds that interact with the IGF1R kinase domain are tested in a cell-based assay system. In accordance with this embodiment, cells expressing a full-length IGF1 receptor or a fragment thereof containing the IGF1R kinase domain, are contacted with a candidate or a control compound and the ability of the compound to block tyrosine kinase activity of IGF1R within a cell is determined. This assay may be used to screen a single compound or a large library of candidate compounds. […] The ability of the candidate compound to inhibit IGF1R kinase activity can be determined by methods known to those skilled in the art. For example, the inhibition can be determined by ELISA-type assay or Western blot analysis with cell lysates or immunoprecipitated IGF1R receptor using various anti-IGF1R and anti-phosphotyrosine antibodies.
In general, cells expressing IGF1R are treated with modulators (i.e., inhibitors or activators) of IGF1R kinase activity and cell lysates are produced from these treated cells. IGF1Rs are isolated from the lysate by immunoprecipitation and analyzed for phosphotyrosine content. Alternatively, or in addition, cellular protein substrates phosphorylated by IGFR may be immunoprecipitated from the lysates and their degree of tyrosine phosphorylation determined. […]

The subject of a further test is My7. Description: Cell proliferation assay, MTT, My7. As to conditions: Homo sapiens, 72 h, standard 3-day proliferation assay. From the text: (§1) IGF1R and other tyrosine kinase inhibitors can inhibit the proliferation of certain cancer cell lines indicating their possible therapeutic utility for treating the corresponding cancer types. Cancer cell lines of interest and control normal lines, including CHO, HEK293, BA/F3, COLO205, PC3, DU145, MCF7, Panc1, ACHN, Hep G2, H460, K562, TT, U87-MG, CAOV-3, SK-MEL5, Karpas 299 and human multiple myeloma cell lines H929, MM1s, MM1r, UTMC2, CPM2, KMS11, My5, KMS12PE, My7, JJN3, KMS18, U266, SKMM2, RPMI-8226 are plated in white, clear-bottomed 384-well cell culture plates at 2500-5000 cells per well and supplied with dilutions of tested compounds After a desired period of time (typically 3 days), the number of viable cells is quantitated by using Cell Titer-Glo Luminescent Cell Viability Assay (Promega), a cell proliferation assay system based on detection of total amount of ATP present as a measure of cell metabolic activity. The plated cells are mixed with the Cell Titer-Glo developing reagent and counted in a luminescence multiwell plate reader according to the standard manufacturer's protocol to generate IC50 curves for cell proliferation inhibition. […] Alternatively, viable cells are quantitated by using the conventional colorimetric MTT assay. […] The formazan is then solubilized, and the concentration determined by optical density at 570 nm. […]

For test [1], the system named is CHO (chinese hamster ovary). Briefly: Cell proliferation assay, MTT, CHO. As to conditions: Cricetulus griseus, 72 h, standard 3-day proliferation assay.
Source text: as §1

In the next test the test system is U266. Briefly: Cell proliferation assay, MTT, U266. As to conditions: Homo sapiens, U-266, 72 h, standard 3-day proliferation assay.
Source text: as §1

The test system of a further test is My5. Briefly: Cell proliferation assay, MTT, My5. As to conditions: Homo sapiens, 72 h, standard 3-day proliferation assay.
Source text: as §1

In a further test the test system is H929. Briefly: Cell proliferation assay, MTT, H929. As to conditions: Homo sapiens, NCI-H929, 72 h, standard 3-day proliferation assay.
Source text: as §1

A further test concerns SKMM2. Description: Cell proliferation assay, MTT, SKMM2. As to conditions: Homo sapiens, SK-MM-2, 72 h, standard 3-day proliferation assay.
Source text: as §1

The subject of another test is KMS11. Description: Cell proliferation assay, MTT, KMS11. As to conditions: Homo sapiens, KMS-11, 72 h, standard 3-day proliferation assay.
Source text: as §1

In test [2] the test system is HEK293 (human normal embryonic kidney). Description: Cell proliferation assay, MTT, HEK293. As to conditions: HEK293, 72 h, standard 3-day proliferation assay, read-out: HEK IC50.
Source text: as §1

A further test deals with JJN3. Briefly: Cell proliferation assay, MTT, JJN3. As to conditions: Homo sapiens, JJN-3, 72 h, standard 3-day proliferation assay.
Source text: as §1

The next test deals with KMS18. Briefly: Cell proliferation assay, MTT, KMS18. As to conditions: Homo sapiens, KMS18, 72 h, standard 3-day proliferation assay.
Source text: as §1

For a further test, the system named is MM1s. Briefly: Cell proliferation assay, MTT, MM1s. As to conditions: Homo sapiens, MM1.S, 72 h, standard 3-day proliferation assay.
Source text: as §1

Another test has as its system UTMC2. Description: Cell proliferation assay, MTT, UTMC2. As to conditions: Homo sapiens, UTMC2, 72 h, standard 3-day proliferation assay.
Source text: as §1

The next test has as its system KMS12PE. Briefly: Cell proliferation assay, MTT, KMS12PE. As to conditions: Homo sapiens, KMS-12-PE, 72 h, standard 3-day proliferation assay.
Source text: as §1

The next test has as its system CPM2. Briefly: Cell proliferation assay, MTT, CPM2. As to conditions: Homo sapiens, 72 h, standard 3-day proliferation assay.
Source text: as §1

Another test deals with RPMI-8226. Briefly: Cell proliferation assay, MTT, RPMI-8226. As to conditions: Homo sapiens, RPMI-8226, 72 h, standard 3-day proliferation assay.
Source text: as §1

In the next test the test system is MM1r. Description: Cell proliferation assay, MTT, MM1r. As to conditions: Homo sapiens, MM.1R, 72 h, standard 3-day proliferation assay.
Source text: as §1

Structures are written as SMILES. Some results are limits rather than exact numbers.

T1 sequence (P08069 31-1367): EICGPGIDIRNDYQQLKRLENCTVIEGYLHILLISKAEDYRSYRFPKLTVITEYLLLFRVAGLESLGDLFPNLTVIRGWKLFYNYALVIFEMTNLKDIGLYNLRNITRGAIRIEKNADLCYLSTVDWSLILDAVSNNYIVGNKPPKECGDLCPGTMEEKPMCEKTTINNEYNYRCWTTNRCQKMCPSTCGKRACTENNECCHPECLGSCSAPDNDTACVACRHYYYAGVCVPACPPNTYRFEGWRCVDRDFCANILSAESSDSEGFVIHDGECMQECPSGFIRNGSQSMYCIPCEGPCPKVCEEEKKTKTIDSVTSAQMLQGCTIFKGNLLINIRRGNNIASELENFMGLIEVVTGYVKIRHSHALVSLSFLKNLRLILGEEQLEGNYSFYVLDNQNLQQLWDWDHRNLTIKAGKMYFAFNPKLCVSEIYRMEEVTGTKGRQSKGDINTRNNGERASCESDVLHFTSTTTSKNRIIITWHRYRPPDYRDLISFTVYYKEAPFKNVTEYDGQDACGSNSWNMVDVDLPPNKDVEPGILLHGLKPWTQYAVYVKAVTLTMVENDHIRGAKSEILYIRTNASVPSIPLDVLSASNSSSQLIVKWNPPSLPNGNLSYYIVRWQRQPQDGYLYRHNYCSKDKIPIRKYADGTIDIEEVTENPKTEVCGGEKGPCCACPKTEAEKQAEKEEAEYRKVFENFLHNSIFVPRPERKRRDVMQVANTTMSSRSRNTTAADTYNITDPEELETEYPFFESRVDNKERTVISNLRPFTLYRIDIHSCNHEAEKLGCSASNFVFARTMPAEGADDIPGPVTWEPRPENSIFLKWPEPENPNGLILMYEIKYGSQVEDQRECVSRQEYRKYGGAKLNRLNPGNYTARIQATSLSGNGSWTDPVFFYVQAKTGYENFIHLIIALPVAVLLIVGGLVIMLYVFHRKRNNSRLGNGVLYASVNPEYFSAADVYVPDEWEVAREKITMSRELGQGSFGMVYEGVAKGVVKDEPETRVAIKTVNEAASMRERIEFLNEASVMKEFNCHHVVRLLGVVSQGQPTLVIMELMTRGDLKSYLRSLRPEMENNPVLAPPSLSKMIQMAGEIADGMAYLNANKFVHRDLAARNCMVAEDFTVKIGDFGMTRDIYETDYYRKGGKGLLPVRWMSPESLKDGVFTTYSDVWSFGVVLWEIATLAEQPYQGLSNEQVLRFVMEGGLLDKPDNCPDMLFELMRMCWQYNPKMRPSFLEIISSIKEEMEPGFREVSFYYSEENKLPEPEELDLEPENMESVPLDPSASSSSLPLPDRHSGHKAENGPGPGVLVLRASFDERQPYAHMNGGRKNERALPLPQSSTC

As to `CN1CCC(N2C(=O)c3cc4nc(-c5c(NCC(O)c6ccncc6)cc[nH]c5=O)[nH]c4cc3C2=O)CC1` (stereo not drawn) [compound 7], the IC50 on IGF1 receptor was more than 15 µM.
Regarding `Cc1ccc(OCC(=O)CNc2cc[nH]c(=O)c2C2Nc3cc4c(cc3N2)C(=O)N(C2CCN(CCS(C)(=O)=O)CC2)C4)c(C)c1` (stereo not drawn), the IC50 with My7 is 1 to 5 µM; in test [1] it was not below 20 µM; with U266 it was 1 to 5 µM; with My5 it was 5 to 20 µM; in the test with H929, 0.5 to 1 µM; in the test with SKMM2 it was 1 to 5 µM. Further, the IC50 in the test with KMS11 is 1 to 5 µM; in [2], not below 20 µM; with JJN3 it was 1 to 5 µM; with KMS18 it was 5 to 20 µM; with MM1s, 0.5 to 1 µM; with UTMC2, less than 0.5 µM. Further, the IC50 in the test with KMS12PE was 1 to 5 µM; with CPM2 it was 1 to 5 µM; with RPMI-8226 it was 5 to 20 µM; in the test with MM1r, 1 to 5 µM.
As for `CC(=O)CCN1CCC(N2Cc3cc4nc(-c5c(NCC(=O)COc6ccc(C)cc6C)cc[nH]c5=O)[nH]c4cc3C2=O)CC1`, the IC50 in the test with My7 is 5 to 20 µM; in test [1], not below 20 µM; in the test with U266 it was 1 to 5 µM; in the test on My5 it was 5 to 20 µM; in the test with H929 it was 1 to 5 µM; in the test on SKMM2, 5 to 20 µM. For the same molecule, the IC50 is 5 to 20 µM in the test on KMS11; not below 20 µM in test [2]; 5 to 20 µM in the test on JJN3; 5 to 20 µM with KMS18; 1 to 5 µM in the test with MM1s; less than 0.5 µM with UTMC2. For the same molecule, the IC50 with KMS12PE lay in the range of 5 to 20 µM; with CPM2, 1 to 5 µM; in the test on RPMI-8226 it was 5 to 20 µM; with MM1r, 1 to 5 µM.
